Data on 16 compounds can be found in patent US20050171194A1, “Enlargement of mucocutaneous or cutaneous organs and sites with topical compositions” (priority 2003, published 2005).

One experiment relates to forearm skin. Briefly: Forearm skin thickness measured by micrometer calipers after topical application. Type of experiment: in vivo, human. The note with it: for % Increase Over (summary of increased skin thickness): 10-35% concentration twice daily on forearm skin, range over 2-13 subjects. An excerpt:
Measuring the increase in thickness of the skin was accomplished in accordance with the following procedures. The increased plumpness or skin thickness by topical application of active ingredients of the embodiments is mainly due to increased biosynthesis of dermal components in the skin. The three most important dermal components are glycosaminoglycans (GAGs), collagens and elastic fibers. The increased skin thickness caused by increased biosynthesis of dermal components can be distinguished from that by water retention or edema formation. In the former case, the skin remains thickened for weeks and months after termination of topical application. In the latter case, the increased skin thickness returns to the original skin thickness within days after termination of topical application. • (1) Forearm Skin
The most convenient body area for testing skin thickness is the forearm skin. For example, a test substance in a formulation was topically applied once or twice daily to left or right forearm for 3 to 6 months and the other forearm was untreated or treated with a vehicle control. The skin plumpness or thickness was measured by micrometer calipers as follows. The skin was grasped with a 2×6 cm hinge plate, the internal faces of the hinge were coated with soft cloth to prevent slippage, and manually squeezed to a threshold point when the subject felt tight. Combined skin thickness of two whole-skin layers including thickness of the two hinge leaves was measured with micrometer calipers. Thickness of the two hinge leaves was subtracted to determine the actual thickness of two whole-skin layers. Triplicate measurements on treated site were done and an average number was used for calculation of the skin thickness. […]
Hydroxycarboxylic acids, N-acyl-aldosamines, N-acylamino acids and related compounds at various concentrations were topically applied to forearms of volunteer subjects or patients. As shown in Tables 1-7, the skin plumpness or thickness was increased substantially by the compounds of the present invention. The increased skin thickness was believed to be due to increased biosynthesis of GAGs, collagen and elastic fibers. […]. From the above test results, hydroxycarboxylic acids, N-acyl-aldosamines, N-acylamino acids and related compounds used alone or in combination should be beneficial to plump and pout lips, enhance and firm eyelids, enlarge and augment breasts, elongate and expand penis.
In one of the studies, skin thickness was measured by micrometer calipers as follows: The skin was grasped with a 2×6 cm metal hinge; the internal faces of which were coated with emery cloth to prevent slippage, and manually squeezed to threshold subject discomfort. Combined thickness of two whole-skin layers including thickness of the two hinge leaves was measured with micrometer calipers. Thickness of the two hinge leaves was subtracted to determine the actual thickness of two whole-skin layers. Triplicate measurements on treated sites were conducted and an average number was used for calculation of the skin thickness.

The subject of another experiment is breasts. Nature of the experiment: Breast enlargement after topical application, clinical evaluation and brassiere cup. Type of experiment: in vivo, human. How it is done:
A test formulation containing a hydroxycarboxylic acid, N-acyl-aldosamine, N-acylamino acid or related compound was topically applied once or twice daily to skin or mucus membrane organs or sites such as lips, eyelids, breasts and penis for one to six months. Increased fullness, volume, contour or the effect of enlarging, expanding, augmenting, enhancing, firming, pouting, plumping or elongating after topical application was measured or determined by clinical as well as photographic evaluations. One of the measurements for breast enlargement or augmentation was by the size of brassiere cup. After topical application of the active ingredient, the subject would feel fullness or greater tightness of their treated breast with increased volume and contour, and there was a need to change and increase the size of the brassiere cup. Thus the enlargement or augmentation of the breast was determined by clinical as well as the increased size of brassiere cup.
A subject, applied topically twice daily gluconolactone 15% lotion to their right breast for 3 months. […] At this time, they began treating both breasts. […]

The nature of experiment [1]: Antioxidant screen tests: air oxidation of anthralin and hydroquinone. An excerpt:
(§1) An antioxidant can be defined as a substance capable of preventing or inhibiting oxidation. The antioxidant property can be readily determined by using any one of the following test methods: prevention or retardation of air oxidation of (a) anthralin, (b) hydroquinone, or (c) banana peel. A freshly prepared anthralin solution or cream is bright yellow, and an air oxidized one is brownish or black. A hydroquinone solution or cream is colorless or white color, and an air oxidized one is brownish or black. A freshly peeled banana peel is light yellow in color and an oxidized one ranges in color from tan, dark tan, brown to brownish black.

A short description of experiment [2]: Banana peel air oxidation test (antioxidant property). The note with it: 0.1 M, 5 ml, room temperature.
Excerpt: as §1

In another experiment the test system is penis. Briefly: Direct augmentation of penis, penile circumference by tape measure. Format: in vivo, human. Conditions: 20% solution two to three times daily for six weeks, person. How it is done: The plumping, pouting or firming effects on lips and eyelids by topical application of an hydroxycarboxylic acid, N-acyl-aldosamine, N-acylamino acid or related compound was determined by clinical as well as photographic evaluation. The elongation or expanding effect of penis was determined by direct measurement of penis before and after once or twice daily topical application of an hydroxycarboxylic acid, N-acyl-aldosamine, N-acylamino acid or related compound. • (C) Antioxidants
One test on direct augmentation of penis was carried out as follows. Lactobionic acid 20% solution was prepared by dissolving lactobionic acid 20 g in water 50 ml and propylene glycol 30 ml. A subject, volunteered to test an active ingredient of the present invention to enhance penile enlargement. Each morning for one week prior to treatment penile circumference was measured. Measurements were made with a cloth tailor's tape measure. Penile circumference of the glans region, which included the covering foreskin, ranged from 9.5 cm to 10.5 cm. The above lactobionic acid 20% solution was topically applied two to three times daily on the glans penis including the covering foreskin region for six weeks. Morning measurements were again made daily for one week after treatment was stopped. Penile circumference ranged from 11.5 cm to 13 cm after six weeks of topical treatment with 20% lactobionic acid solution.

The subject of another experiment is eyelids, lips, skin. Briefly: Plumping or firming of eyelids, lips and skin, clinical and photographic evaluation. Type of experiment: in vivo, human. How it is done:
Standard photographs were taken before and after topical applications of test formulations. Plumping or firming effect was determined by clinical as well as photographic evaluation. It was discovered that hydroxycarboxylic acids, N-acyl-aldosamines, N-acylamino acids and related compounds had substantial effect on plumping or firming the eyelids. Aside from clinical as well as photographic evaluation, eyelids plumping or firming also was determined from the disappearance of certain skin lines on the eyelids skin. When eyelids skin was plumping up, the eyelids skin firmed up or pulled up, and the skin lines became less apparent or disappeared. Therefore, when the skin lines on the eyelids disappeared after topical application of a test formulation, the test substance was judged to have plumping or firming effect on the eyelids. It also was discovered that hydroxycarboxylic acids, N-acyl-aldosamines, N-acylamino acids and related compounds on topical application had firming or plumping up effects on the eyelids skin. […] Increased fullness, volume, contour or the effect of enlarging, expanding, augmenting, enhancing, firming, pouting, plumping or elongating after topical application was measured or determined by clinical as well as photographic evaluations. One of the measurements for breast enlargement or augmentation was by the size of brassiere cup. After topical application of the active ingredient, the subject would feel fullness or greater tightness of their treated breast with increased volume and contour, and there was a need to change and increase the size of the brassiere cup. Thus the enlargement or augmentation of the breast was determined by clinical as well as the increased size of brassiere cup. The plumping, pouting or firming effects on lips and eyelids by topical application of an hydroxycarboxylic acid, N-acyl-aldosamine, N-acylamino acid or related compound was determined by clinical as well as photographic evaluation. The elongation or expanding effect of penis was determined by direct measurement of penis before and after once or twice daily topical application of an hydroxycarboxylic acid, N-acyl-aldosamine, N-acylamino acid or related compound. • (C) Antioxidants

[3] abbreviates: anthralin, hydroquinone or banana peel air oxidation.
The mark [4] stands for this setting: 14% cream twice daily, person, after two months.

Several values for one entry are separate records, joined by “and”; a condition that tells them apart may be missing. Equal entries are not always repeated. Where two headings read alike, the source gives them in different places.

For the compound `CC(O)C(=O)O` (racemic) [DL-Lactic Acid, 2-hydroxypropanoic acid], the “% Increase Over (summary of increased skin thickness)” value with forearm skin is recorded as 17-42%.
Consider `O=C(O)C(O)c1ccccc1` (racemic) [DL-Mandelic Acid, 2-henyl-2-hydroxyethanoic acid], for which, in the experiment with forearm skin, the “% Increase Over (summary of increased skin thickness)” value was 22-27%. In the experiment with forearm skin (30% solution, twice daily on forearm skin, 4 months, control = opposite forearm, one subject), the “% Increase Over Control (skin thickness)” value is 22% and 27%.
Take `CC(=O)NC1CCSC1=O` (racemic) [N-Acetyl-DL-homocysteine Thiolactone]: in the experiment on forearm skin (5% lotion, twice daily on forearm skin, 3 weeks, control = opposite forearm, one subject), the “% Increase Over Control (%) (skin thickness)” value was 13% and 65%.
On to `O=C1O[C@H](CO)[C@@H](O)[C@H](O)[C@H]1O` [D-Gluconolactone], for which the “size of treated right breast” value in the experiment with breasts (15% lotion twice daily, person, after 6 weeks, untreated left breast no change) is on record as “noticeable increase in the size of their right breast”. Moreover, in the experiment with breasts (15% lotion twice daily, person, at the end of 3 months), the “plumpness and firmness of treated right breast compared to left breast” value is “increased in plumpness and firmness”. For the same compound, the “plumpness and firmness of both breasts” value in the experiment with breasts (15% lotion, both breasts treated, at the end of another 3 months (6 month treatment period)) was “substantially increased in plumpness and firmness”. For the same compound, the “% Increase Over (summary of increased skin thickness)” value with forearm skin is on record as 7-19%.
On to `O=C(O)CO` [Glycolic Acid, 2-hydroxyethanoic acid], for which the “% Increase Over (summary of increased skin thickness)” value in the experiment with forearm skin is 11-43%.
With `O=C(O)[C@H](O)[C@@H](O)[C@H](O[C@@H]1O[C@H](CO)[C@H](O)[C@H](O)[C@H]1O)[C@H](O)CO` [Lactobionic Acid, lactobionic acid], in experiment [1], the “antioxidant property by anthralin and hydroquinone test methods” value was “moderate antioxidant”. Besides, the “% Increase Over (summary of increased skin thickness)” value in the experiment on forearm skin is recorded as 5-58%. Besides, the “% Increase Over Control (%) (skin thickness)” value with forearm skin (Conc. 8%, twice daily on forearm skin, 3 months, control = opposite forearm, subject) was found to be 26%; with forearm skin (Conc. 20%, twice daily on forearm skin, 4 months, control = opposite forearm, subject), 10%. Besides, the “color of fresh banana peels” value in experiment [2] (after 72 hours, control in water dark tan at 24 to 72 hours) is “changed in color to tan”; in experiment [2] (period of 24 hours, control in water tan within 6 hours), “remained white-yellowish”. The “glans penile augmentation and foreskin thickness (in words)” value in the experiment with penis is listed as “glans penile augmentation had occurred, as well as increased thickness of foreskin”.
Take `O=C(O)[C@H](O)[C@@H](O)[C@H](O[C@@H]1O[C@H](CO)[C@H](O)[C@H](O)[C@H]1O)[C@H](O)CO` [Maltobionic acid, maltobionic acid]: in the experiment with eyelids, lips, skin (20% solution twice daily applied prior to continued glyceric acid 14% cream, same subject, after five weeks), the “skin fullness and plumping” value is “marked enhancement of skin fullness and plumping”.
Take `CC(C)(O)C(=O)O` [Methyllactic Acid, 2-methyl-2-hydroxypropanoic acid]: the “% Increase Over (summary of increased skin thickness)” value in the experiment with forearm skin is on record as 14-20%.
On to `CC(=O)N[C@@H](CS)C(=O)O` [N-Acetyl-L-cysteine], for which the “antioxidant properties based on the screen tests” value (shortened to “antioxidant properties based”) in experiment [1] (setting [3]) is listed as “antioxidant substances”.
Regarding `CCC(=O)N[C@H]1C(O)O[C@H](CO)[C@@H](O)[C@@H]1O` (stereo partly drawn) [N-Propanoyl-D-glucosamine], the “appearance of treated forearm skin when lifted” value with forearm skin (10% solution twice daily, at the end of treatment (6 to 9 weeks), untreated forearm still loose and relatively thin) is “more firm, smooth and plump when lifted”. For the same compound, the “increase in skin thickness of treated forearm” value in the experiment with forearm skin (10% solution twice daily, person one, after 4 weeks, untreated forearm no change) came out at 8%; with forearm skin (10% solution twice daily, person one, after 6 weeks, untreated forearm no change) it was 23%; with forearm skin (10% solution twice daily, person one, after 9 weeks, untreated forearm no change), 28%; in the experiment on forearm skin (10% solution twice daily, person two, after 4 weeks, untreated forearm no change), 13%; in the experiment with forearm skin (10% solution twice daily, person two, after 6 weeks), 27%; in the experiment with forearm skin (10% solution twice daily, person, after 5 weeks, untreated forearm no change), 19%. Besides, the “increase in skin thickness of treated forearm” value with forearm skin (10% solution twice daily, person, after 8 weeks) is on record as 33%.
For the compound `O=C(O)c1ccccc1O` [Salicylic Acid, 2-hydroxybenzoic acid, reference compound], in the experiment with forearm skin (topical application on forearm skin), the “effect on skin plumpness or thickness (in words)” value is reported as “decreased instead of increasing skin thickness”.
As for `O=C(O)C(O)CO` (stereo not drawn) [glyceric acid, 2,3-dihydroxypropanoic acid], in the experiment on eyelids, lips, skin (setting [4]), the lips plumpness entry is reported as “more plump”; the plumping of skin entry is reported as “plumping of skin was detectable”; the “skin of the upper arms appearance” value is on record as “diminished crepe paper appearance”; the “upper eyelids droop and fullness” value is “diminished droop and enhanced fullness”.
Regarding `O=C1O[C@H]([C@H](O)CO)C(O)=C1O` [isoascorbic acid, D-erythro-hex-2-enonic acidr-lactone], in experiment [1] (setting [3]), the “antioxidant properties based” value is given as “antioxidant substances”.
Take `O=C(O)CC(C(=O)O)C(O)C(=O)O` (stereo not drawn) [isocitric acid]: the “antioxidant properties based” value in experiment [1] was “antioxidant substances”.
Turning to `O=C(O)CC(O)C(=O)O` (stereo not drawn) [malic acid, 2-hydroxybutane-1,4-dioic acid], in experiment [1] (setting [3]), the “antioxidant properties based” value is given as “antioxidant substances”.
Regarding `CC1(C)COC(=O)C1O` (stereo not drawn) [pantolactone], the “antioxidant properties based” value in experiment [1] (setting [3]) is listed as “antioxidant substances”.
